Experimental findings from ChEMBL document CHEMBL1155335, “Studies towards topical selective beta2-adrenoceptor agonists with a long duration of action” (Bioorg Med Chem Lett, 2009) are described below.

The structures appear in SMILES notation. The source made the active and inactive calls. The calls are words filed in the database; no cut-off is given here.

The test system of data set [1] is Cavia porcellus. Briefly: Bronchoprotective activity in guinea pig assessed as inhibition of acetylcholine-induced increase in pulmonary resistance at 3 ug/kg, intratracheally after 5 hrs. Type of data set: functional, organism-based.
Data set [2] has as its system Cavia porcellus. In words: Bronchoprotective activity in intratracheally dosed guinea pig assessed as inhibition of acetylcholine-induced increase in pulmonary resistance after 5 hrs. Type of data set: functional, organism-based.
For data set [3], the system named is Cavia porcellus. Briefly: Toxicity in guinea pig assessed as increase in heart rate at 10 ug/kg, intratracheally after 90 mins. Type of data set: organism-based. The following applies: in vivo, inhaled_or_intranasal, 0.01 mg/kg, 1.5 h.
The target in data set [4] is Beta-2 adrenergic receptor (Homo sapiens, UniProt P07550).
Description: Agonist activity at human beta2 adrenoceptor expressed in CHOK1 cell assessed as increase of intracellular cAMP level
For data set [5], the target named is Beta-1 adrenergic receptor (Homo sapiens, UniProt P08588).
Description: Agonist activity at human beta-1 adrenoceptor expressed in CHOK1 cell assessed as increase of intracellular cAMP level
The next data set is filed under the species Homo sapiens. Briefly: Selectivity ratio, EC50 for human beta-1 adrenoceptor to EC50 for human beta2 adrenoceptor.
Data set [6] concerns Cavia porcellus. Briefly: Bronchoprotective activity in guinea pig assessed as inhibition of acetylcholine-induced increase in pulmonary resistance at 10 ug/kg, intratracheally after 5 hrs. Type of data set: functional. Details: scale not given: the % may be the effect or the level left.
The subject of data set [7] is Cavia porcellus. Briefly: Toxicity in intratracheally dosed guinea pig assessed as increase in heart rate after 10 to 20 mins. Type of data set: organism-based. Particulars: in vivo, inhaled_or_intranasal.
In data set [8] the test system is Cavia porcellus. Briefly: Toxicity in guinea pig assessed as increase in heart rate at 3 ug/kg, intratracheally after 90 mins. Type of data set: organism-based. The following applies: in vivo, inhaled_or_intranasal, 0.003 mg/kg, 1.5 h.

Beta-1 adrenergic receptor, sequence (P08588 whole entry): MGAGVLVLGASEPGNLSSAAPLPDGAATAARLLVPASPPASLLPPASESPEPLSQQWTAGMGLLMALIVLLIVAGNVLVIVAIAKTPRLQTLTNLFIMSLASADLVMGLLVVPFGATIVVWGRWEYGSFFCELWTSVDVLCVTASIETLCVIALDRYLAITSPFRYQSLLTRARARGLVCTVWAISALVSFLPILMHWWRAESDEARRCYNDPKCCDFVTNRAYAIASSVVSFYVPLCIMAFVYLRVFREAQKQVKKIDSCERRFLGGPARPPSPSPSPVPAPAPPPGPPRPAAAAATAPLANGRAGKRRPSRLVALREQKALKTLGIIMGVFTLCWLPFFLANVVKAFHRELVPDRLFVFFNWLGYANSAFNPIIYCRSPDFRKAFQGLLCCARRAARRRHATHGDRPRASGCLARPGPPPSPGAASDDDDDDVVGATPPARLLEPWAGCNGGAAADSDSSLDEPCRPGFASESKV
Beta-2 adrenergic receptor, sequence (P07550 whole entry): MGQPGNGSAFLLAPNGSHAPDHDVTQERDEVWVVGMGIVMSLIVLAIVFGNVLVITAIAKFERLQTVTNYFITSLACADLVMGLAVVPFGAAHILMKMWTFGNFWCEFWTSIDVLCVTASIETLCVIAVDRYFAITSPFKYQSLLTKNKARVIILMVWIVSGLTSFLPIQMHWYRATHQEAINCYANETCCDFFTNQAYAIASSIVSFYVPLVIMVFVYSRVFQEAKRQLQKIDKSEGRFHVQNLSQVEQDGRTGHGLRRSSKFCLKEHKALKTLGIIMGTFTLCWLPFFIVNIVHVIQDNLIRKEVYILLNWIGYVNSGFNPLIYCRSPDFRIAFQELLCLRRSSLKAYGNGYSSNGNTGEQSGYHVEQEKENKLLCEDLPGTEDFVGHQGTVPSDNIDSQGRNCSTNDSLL

For orientation: EC50 means the concentration that produces a half-maximal response. Regarding `CC(C)(Cc1ccc(NC(=O)CCCNC(=O)CN)cc1)NCC(O)c1ccc(O)c2c1OCC(=O)N2` (centres undefined), the result with Cavia porcellus [1] was Active. For the same molecule, the Activity result was “Dose-dependent effect” in the data set on Cavia porcellus [2], > 10% in the data set on Cavia porcellus [3], 100% in the data set on Cavia porcellus [6] and “Toxic” in the data set with Cavia porcellus [7]. In addition, the EC50 in data set [4] amounted to 1.2 nM; in data set [5], 4.5 nM. In the data set filed under Homo sapiens, the Ratio EC50 was 3.8.
`CC(C)(Cc1ccc(NC(=O)CCCNC(=O)C[N+](C)(C)C)cc1)NCC(O)c1ccc(O)c2c1OCC(=O)N2` (centres undefined): the EC50 in [4] was determined as 1 nM; in data set [5], 3.5 nM. In the data set listed under Homo sapiens, the Ratio EC50 was 3.5.
Taken in the same sequence, the figures for `CC(C)(Cc1ccc(NC(=O)CCCN)cc1)NCC(O)c1cc(O)cc2c1OCC(=O)N2` (centres undefined) were 9 nM, 11 nM and 1.2.
`CN1CCN(CC(=O)NCCCC(=O)Nc2ccc(CC(C)(C)NCC(O)c3ccc(O)c4c3OCC(=O)N4)cc2)CC1` (centres undefined): the figures for the EC50 in data set [4] and in data set [5] were 1.2 nM and 5.7 nM, respectively. In the data set filed under Homo sapiens, the Ratio EC50 came to 4.8.
As for `CC(C)(Cc1ccc(NC(=O)CCCNC(=N)N)cc1)NCC(O)c1ccc(O)c2c1OCC(=O)N2` (centres undefined), the result with Cavia porcellus [1] was Active. Moreover, the Activity result is “Dose-dependent effect” in the data set on Cavia porcellus [2], > 10% in the data set with Cavia porcellus [3], 100% in the data set with Cavia porcellus [6] and “Toxic” in the data set with Cavia porcellus [7]. In addition, the EC50 in data set [4] amounted to 1 nM; in data set [5], 1.8 nM. The Ratio EC50 in the data set filed under Homo sapiens worked out at 1.8.
As to `CC(C)(Cc1ccc(NC(=O)CCCNC(=O)C(N)CCCN)cc1)NCC(O)c1ccc(O)c2c1OCC(=O)N2` (centres undefined), the result in the data set with Cavia porcellus [1] was Active. Further, the Activity entry with Cavia porcellus [2] is “Dose-dependent effect”; in the data set with Cavia porcellus [3] it was > 10%; in the data set on Cavia porcellus [6], 100%; in the data set on Cavia porcellus [7], “Toxic”. The EC50 stood at 5.4 nM in data set [4] and 24 nM in data set [5]. In the data set filed under Homo sapiens, the Ratio EC50 amounted to 4.4.
`CC(C)(Cc1ccc(NC(=O)CCCNC(=O)C[N+](C)(C)C)cc1)NCC(O)c1cc(O)cc2c1OCC(=O)N2` (centres undefined): the EC50 in data set [4] was 11.6 nM; in [5], 28 nM. Also, the Ratio EC50 in the data set listed under Homo sapiens came to 2.4.
Regarding `CC(C)(Cc1ccc(NC(=O)CCCNC(=O)CCN)cc1)NCC(O)c1ccc(O)c2c1OCC(=O)N2` (centres undefined), the EC50 in data set [4] was 0.9 nM; in [5] it was 4.6 nM. Besides, the Ratio EC50 in the data set filed under Homo sapiens is 5.1.
Take `CC(C)(Cc1ccc(NC(=O)CCCNC(=N)N)cc1)NCC(O)c1cc(O)cc2c1OCC(=O)N2` (centres undefined): the Ratio EC50 in the data set filed under Homo sapiens was determined as 4.4.
In the case of `CC(C)(Cc1ccc(NC(=O)CCCNCCCS(=O)(=O)O)cc1)NCC(O)c1ccc(O)c2c1OCC(=O)N2` (centres undefined), the Activity result with Cavia porcellus [2] was “Dose-dependent effect”; in the data set with Cavia porcellus [8] it was “Active”; in the data set with Cavia porcellus [7], “Toxic”. Besides, the values for the EC50 in data set [4] and in [5] were 1.8 nM and 9.9 nM, respectively. Also, the Ratio EC50 in the data set filed under Homo sapiens worked out at 5.5.
In the case of `CN(C)CC(=O)NCCCC(=O)Nc1ccc(CC(C)(C)NCC(O)c2ccc(O)c3c2OCC(=O)N3)cc1` (centres undefined), the EC50 in data set [4] was 0.5 nM; in data set [5], 5.3 nM. For the same molecule, in the data set filed under Homo sapiens, the Ratio EC50 was determined as 10.6.
Regarding `CC(C)(Cc1ccc(NC(=O)CCCN=C(N)N)cc1)NCC(O)c1cc(O)cc2c1OCC(=O)N2` (centres undefined), the EC50 in data set [4] came to 4.1 nM; in data set [5] it was 18 nM.
As to `CC(C)(Cc1ccc(NC(=O)CCCN)cc1)NCC(O)c1ccc(O)c2c1OCC(=O)N2` (centres undefined), the values for the EC50 in data set [4] and in data set [5] were 1.1 nM and 3.4 nM, respectively. For the same molecule, the Ratio EC50 in the data set filed under Homo sapiens worked out at 3.1.
